Tests used:
[1] = refractive index (Na D-line) (dimensionless); xn = mol fraction of the nth substance listed; settings: 101 kPa, Liquid, Standard Abbe refractometry
[2] = xn = mol fraction of the nth substance listed; settings: 101 kPa, Liquid; for speed of sound: Frequency=3 MHz, Sing-around technique in a fixed-path interferometer; for mass density: Vibrating tube method
[3] = refractive index (Na D-line) (dimensionless); settings: 101.33 kPa, Liquid, Standard Abbe refractometry
[4] = Liquid; for speed of sound: Sing-around technique in a fixed-path interferometer; for mass density: Vibrating tube method

CCO [ethanol] + CCOC(=O)OCC
298.15 K, x2 = 0
Settings	mass density [kg/m3]	refractive index	speed of sound [m/s]
[1]	–	1.35945	–
[2]	785.24	–	1142.8

CCCC(=O)O [butanoic acid]
[3]
Settings	refractive index
293.15 K	1.39826
298.15 K	1.3963
303.15 K	1.39421
308.15 K	1.39217
313.15 K	1.3901

[4], 101.33 kPa
Settings	mass density [kg/m3]	speed of sound [m/s]
293.15 K	957.78	1195.5
298.15 K	952.81	1176.9
303.15 K	947.94	1158.2
308.15 K	942.92	1139.7
313.15 K	938.05	1121.3

CCOC(=O)OCC [diethyl carbonate]
Settings	refractive index
[3], 298.15 K	1.38249

Settings	speed of sound [m/s]
[4], 298.15 K, 101 kPa, Frequency=3 MHz	1176.6

Settings	mass density [kg/m3]
[4], 298.15 K, 101 kPa	969.32

CCCCC(=O)O [pentanoic acid]
[3]
Settings	refractive index
293.15 K	1.4084
298.15 K	1.40641
303.15 K	1.40438
308.15 K	1.40234
313.15 K	1.4003

[4], 101.33 kPa
Settings	mass density [kg/m3]	speed of sound [m/s]
293.15 K	939.41	1234
298.15 K	934.85	1216
303.15 K	930.29	1197.9
308.15 K	925.73	1179.9
313.15 K	921.16	1162.1

CCO [ethanol]
Settings	refractive index
[3], 298.15 K	1.35945

Settings	speed of sound [m/s]
[4], 298.15 K, 101 kPa, Frequency=3 MHz	1142.8

Settings	mass density [kg/m3]
[4], 298.15 K, 101 kPa	785.24

CCCCC(=O)O [pentanoic acid] + CCCCCCC(=O)O
x2 = 0
Settings	mass density, [2] [kg/m3]	refractive index, [1]	speed of sound, [2] [m/s]
293.15 K	939.41	1.4084	1234
298.15 K	934.85	1.40641	1216
303.15 K	930.29	1.40438	1197.9
308.15 K	925.73	1.40234	1179.9
313.15 K	921.16	1.4003	1162.1

CCOC(=O)OCC [diethyl carbonate] + CCO
298.15 K
Settings	mass density, [2] [kg/m3]	refractive index, [1]	speed of sound, [2] [m/s]
x1 = 0.0415	800.3	1.36136	1145.2
x1 = 0.0943	817.71	1.36347	1147.3
x1 = 0.1932	845.85	1.36698	1150.9
x1 = 0.2929	869.58	1.36981	1154
x1 = 0.3938	889.96	1.37241	1156.9
x1 = 0.4965	907.82	1.3746	1159.8
x1 = 0.597	922.99	1.37647	1162.8
x1 = 0.6924	935.73	1.37805	1166
x1 = 0.7911	947.58	1.37957	1169.7
x1 = 0.899	959.27	1.38109	1173.7
x1 = 0.9413	963.58	1.38167	1175
x1 = 1	969.32	1.38249	1176.6

CCCC(=O)O [butanoic acid] + CCCCC(=O)O
x1 = 1
Settings	mass density, [2] [kg/m3]	refractive index, [1]	speed of sound, [2] [m/s]
293.15 K	957.78	1.39826	1195.5
298.15 K	952.81	1.3963	1176.9
303.15 K	947.94	1.39421	1158.2
308.15 K	942.92	1.39217	1139.7
313.15 K	938.05	1.3901	1121.3

CCCCCCC(=O)O [heptanoic acid]
[3]
Settings	refractive index
293.15 K	1.42336
298.15 K	1.42138
303.15 K	1.41935
308.15 K	1.41733
313.15 K	1.4153

[4], 101.33 kPa
Settings	mass density [kg/m3]	speed of sound [m/s]
293.15 K	917.65	1295.4
298.15 K	913.47	1277.7
303.15 K	909.29	1259.9
308.15 K	905.11	1242.2
313.15 K	900.94	1224.7

Source: the NIST ThermoML archive (doi:10.1016/j.tca.2014.06.031)
